Source: US10717716B2, “1,3,4-oxadiazole derivative compounds as histone deacetylase 6 inhibitor, and the pharmaceutical composition comprising the same” (Chong Kun Dang Pharmaceutical Corp., priority 2015, dated 2020)
pIC50: −log10 of the molar value.

Biological target: T1, human recombinant HDAC6 (Homo sapiens, UniProt Q9UBN7)
T1 construct: purchased Calbiochem 382180
T1 sequence (Q9UBN7 1-1215): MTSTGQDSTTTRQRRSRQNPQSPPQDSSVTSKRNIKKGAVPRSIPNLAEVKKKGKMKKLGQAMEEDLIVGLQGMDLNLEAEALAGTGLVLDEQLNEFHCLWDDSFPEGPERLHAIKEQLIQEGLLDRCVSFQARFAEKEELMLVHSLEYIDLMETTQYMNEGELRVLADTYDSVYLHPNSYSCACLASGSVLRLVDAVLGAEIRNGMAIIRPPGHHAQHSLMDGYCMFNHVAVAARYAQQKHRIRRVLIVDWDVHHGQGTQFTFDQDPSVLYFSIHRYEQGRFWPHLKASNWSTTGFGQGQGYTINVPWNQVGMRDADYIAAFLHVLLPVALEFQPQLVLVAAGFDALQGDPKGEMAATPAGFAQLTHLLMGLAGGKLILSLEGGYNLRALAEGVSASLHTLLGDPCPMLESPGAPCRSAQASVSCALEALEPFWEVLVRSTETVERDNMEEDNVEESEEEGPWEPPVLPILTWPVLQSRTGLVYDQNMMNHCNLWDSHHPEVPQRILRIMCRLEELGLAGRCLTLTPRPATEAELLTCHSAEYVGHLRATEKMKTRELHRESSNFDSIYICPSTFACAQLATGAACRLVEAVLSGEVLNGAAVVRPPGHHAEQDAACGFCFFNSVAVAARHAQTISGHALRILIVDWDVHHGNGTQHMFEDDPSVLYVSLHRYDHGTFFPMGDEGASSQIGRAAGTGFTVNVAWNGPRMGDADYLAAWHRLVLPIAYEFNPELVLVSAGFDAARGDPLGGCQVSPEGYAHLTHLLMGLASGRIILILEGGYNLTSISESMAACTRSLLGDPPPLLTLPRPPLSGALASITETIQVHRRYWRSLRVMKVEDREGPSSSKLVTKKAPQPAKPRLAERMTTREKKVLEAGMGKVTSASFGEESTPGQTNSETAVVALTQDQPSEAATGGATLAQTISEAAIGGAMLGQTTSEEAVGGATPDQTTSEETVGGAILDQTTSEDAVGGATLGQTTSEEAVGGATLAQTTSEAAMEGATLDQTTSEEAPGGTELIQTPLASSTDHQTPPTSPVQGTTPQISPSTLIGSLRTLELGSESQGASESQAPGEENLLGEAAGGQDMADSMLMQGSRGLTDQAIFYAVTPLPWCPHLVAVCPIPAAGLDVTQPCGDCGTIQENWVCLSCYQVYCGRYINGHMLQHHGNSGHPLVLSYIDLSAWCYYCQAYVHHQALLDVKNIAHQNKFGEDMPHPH
Assay: HDAC6 enzyme activity inhibition assay (HDAC Fluorimetric Drug Discovery Kit)
Assay type: biochemical
Details: for HDAC6 selectivity (fold): HDAC6 over HDAC1; for pIC50: human recombinant HDAC6, same protocol as HDAC1, read-out: HDAC6
Procedure, shortened: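 Human recombinant HDAC1 or HDAC6 (0.3 μg) reacted with 10 μM Fluor de Lys-SIRT1 substrate and 5-fold compound dilutions for 60 min at 30 °C. Developer II added for 30 min, fluorescence read at Ex 360/Em 460; IC50 calculated from the readings.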

| HDAC6 selectivity (fold) | pIC50 | SMILES |
| --- | --- | --- |
| 147 | 7.17 | O=C(N1CCS(=O)(=O)CC1)N(Cc1ccc(-c2nnc(C(F)(F)F)o2)cc1)c1ccccc1 [Compound 21361, N-phenyl-N-(4-(5-(trifluoromethyl)-1,3,4-oxadiazol-2-yl)benzyl)thiomorpholine-4-carboxamide 1,1-dioxide] |
| 6 | 5.80 | CC(C)(C)OC(=O)N1CC2(CCN(C(=O)N(Cc3ccc(-c4nnc(C(F)(F)F)o4)cc3)c3ccccc3)CC2)C1 [Compound 21416, Ten-butyl 7-(phenyl(4-(5-(trifluoromethyl)-1,3,4-oxadiazol-2-yl)benzyl)carbamoyl)-2,7-diazaspiro[3.5]nonane-2-carboxylate] |
| 204 | 7.31 | COc1ccccc1N(Cc1ccc(-c2nnc(C(F)F)o2)cc1F)C(=O)N1CCS(=O)(=O)CC1 [Compound 21480, N-(4-(5-(difluoromethyl)-1,3,4-Oxadiazol-2-yl)-2-fluorobenzyl)-N-(2-methoxyphenyl)thiomorpholine-4-carboxamide 1,1-dioxide] |
| 17 | 6.24 | CCCN(Cc1ccc(-c2nnc(C(F)(F)F)o2)cc1)C(=O)N1CCOCC1 [Compound 21400, N-propyl-N-(4-(5-(trifluoromethyl)-1,3,4-oxadiazol-2-yl)benzyl)morpholine-4-carboxamide] |
| 127 | 7.10 | CC(C)(C)N1CCN(C(=O)N(Cc2ccc(-c3nnc(C(F)(F)F)o3)cc2F)c2ccccc2)CC1 [Compound 21382, 4-(Tert-butyl)-N-(2-fluoro-4-(5-(trifluoromethyl)-1,3,4-oxadiazol-2-yl)benzyl)-N-phenylpiperazine-1-carboxamide] |
| 476 | 7.68 | Cn1ncc2ccc(N(Cc3ccc(-c4nnc(C(F)F)o4)cc3F)C(=O)N3CCS(=O)(=O)CC3)cc21 [Compound 21546, N-(4-(5-(difluoromethyl)-1,3,4-oxadiazol-2-yl)-2-fluorobenzyl)-N-(1-methyl-1H-indazol-6-yl)thiomorpholine-4-carboxamide 1,1-dioxide] |
| 122 | 7.09 | O=C(N1CCN(C2COC2)CC1)N(Cc1ccc(-c2nnc(C(F)F)o2)cn1)c1cccc(F)c1 [Compound 21938, N-((5-(5-(Difluoromethyl)-1,3,4-oxadiazol-2-yl)pyridin-2-yl)methyl)-N-(3-fluorophenyl)-4-(oxetan-3-yl)piperazine-1-carboxamide] |
| 27 | 6.44 | O=C(N1CCS(=O)(=O)CC1)N(Cc1ccc(-c2nnc(C(F)(F)F)o2)cc1)c1cccc(C(F)(F)F)c1 [Compound 21391, N-(4-(5-(trifluoromethyl)-1,3,4-oxadiazol-2-yl)benzyl)-N-(3-(trifluoromethyl)phenyl)thiomorpholine-4-carboxamide 1,1-dioxide] |
| 1 | – | O=C(N1CCOCC1)N(Cc1ccc(-c2nnc(C(F)(F)F)o2)nc1)c1ccccc1 [Compound 21333, N-phenyl-N-((6-(5-(trifluoromethyl)-1,3,4-oxadiazol-2-yl)pyridin-3-yl)methyl)morpholine-4-carboxamide] |
| 79 | 6.90 | O=C(N1CCOCC1)N(Cc1ccc(-c2nnc(C(F)F)o2)cc1F)c1cccs1 [Compound 22019, N-(4-(5-(Difluoromethyl)-1,3,4-oxadiazol-2-yl)-2-fluorobenzyl)-N-(thiophen-2-yl)morpholine-4-carboxamide] |
| 138 | 7.14 | O=C(N1CCS(=O)(=O)CC1)N(Cc1ccc(-c2nnc(C(F)F)o2)cn1)c1ccc(Oc2ccccc2)cc1 [Compound 21631, N-((5-(5-(difluoromethyl)-1,3,4-oxadiazol-2-yl)pyridin-2-yl)methyl)-N-(4-phenoxyphenyl)thiomorpholine-4-carboxamide 1,1-dioxide] |
| 1 | 4.97 | COc1cc(-c2nnc(C(F)(F)F)o2)ccc1CN(C(=O)N1CCOCC1)c1ccccc1 [Compound 21343, N-(2-methoxy-4-(5-(trifluoromethyl)-1,3,4-oxadiazol-2-yl)benzyl)-N-phenylmorpholine-4-carboxamide] |
| 213 | 7.33 | Cc1ccc(N(Cc2ccc(-c3nnc(C(F)F)o3)cc2F)C(=O)N2CCN(C)CC2)cc1 [Compound 21471, N-(4-(5-(difluoromethyl)-1,3,4-oxadiazol-2-yl)-2-fluorobenzyl)-4-methyl-N-(p-tolyl)piperazine-1-carboxamide] |
| 16 | 6.21 | O=C(N1CCOCC1)N(Cc1ccc(-c2nnc(C(F)(F)F)o2)cc1)c1ccc(C(F)(F)F)cc1 [Compound 21406, N-(4-(5-(trifluoromethyl)-1,3,4-oxadiazol-2-yl)benzyl)-N-(4-(trifluoromethyl)phenyl)morpholine-4-carboxamide] |
| 313 | 7.49 | Cc1cccc(N(Cc2ccc(-c3nnc(C(F)F)o3)cc2F)C(=O)N2CCN(C)CC2)c1 [Compound 21470, N-(4-(5-(difluoromethyl)-1,3,4-oxadiazol-2-yl)-2-fluorobenzyl)-4-methyl-N-(m-tolyl)piperazine-1-carboxamide] |
| 17 | 6.24 | O=C(N1CCS(=O)(=O)CC1)N(Cc1ccc(-c2nnc(C(F)(F)F)o2)cc1)c1cccc(C(F)(F)F)n1 [Compound 21456, N-(4-(5-(trifluoromethyl)-1,3,4-oxadiazol-2-yl)benzyl)-N-(6-(trifluoromethyl)pyridin-2-yl)thiomorpholine-4-carboxamide 1,1-dioxide] |
| 15 | 6.17 | Cc1nnc(N(Cc2ccc(-c3nnc(C(F)F)o3)cc2F)C(=O)N2CCS(=O)(=O)CC2)s1 [Compound 21979, N-(4-(5-(difluoromethyl)-1,3,4-oxadiazol-2-yl)-2-fluorobenzyl)-N-(5-methyl-1,3,4-thiadiazol-2-yl)thiomorpholine-4-carboxamide 1,1-dioxide] |
| 4 | 5.62 | O=C(N1CCOCC1)N(Cc1ccc(-c2nnc(C(F)(F)F)o2)cc1F)CC12CC3CC(CC(C3)C1)C2 [Compound 21933, N-(((3r,5r,7r)-adamantan-1-yl)methyl)-N-(2-fluoro-4-(5-(trifluoromethyl)-1,3,4-oxadiazol-2-yl)benzyl)morpholine-4-carboxamide] |
| 96 | 6.98 | O=C(NCCN1CCOCC1)N(Cc1ccc(-c2nnc(C(F)F)o2)cc1F)c1ccccc1 [Compound 21982, 1-(4-(5-(Difluoromethyl)-1,3,4-oxadiazol-2-yl)-2-fluorobenzyl)-3-(2-morpholinoethyl)-1-phenylurea] |
| 26 | 6.41 | COc1ccc(N(Cc2ccc(-c3nnc(C(F)F)o3)cc2)C(=O)N2CCN(C3COC3)CC2)cc1 [Compound 21951, N-(4-(5-(Difluoromethyl)-1,3,4-oxadiazol-2-yl)benzyl)-N-(4-methoxyphenyl)-4-(oxetan-3-yl)piperazine-1-carboxamide] |
| 196 | 7.29 | O=C(N1CCS(=O)(=O)CC1)N(Cc1ccc(-c2nnc(C(F)(F)F)o2)cc1)c1ccccc1F [Compound 21447, N-(2-fluorophenyl)-N-(4-(5-(trifluoromethyl)-1,3,4-oxadiazol-2-yl)benzyl)thiomorpholine-4-carboxamide 1,1-dioxide] |
| 333 | 7.52 | CN1CCN(C(=O)N(Cc2ccc(-c3nnc(C(F)F)o3)cc2F)c2cccc(Br)c2)CC1 [Compound 21465, N-(3-bromophenyl)-N-(4-(5-(difluoromethyl)-1,3,4-oxadiazol-2-yl)-2-fluorobenzyl)-4-methylpiperazine-1-carboxamide] |
| 357 | 7.55 | CS(=O)(=O)N1CCC2(CC1)CN(C(=O)N(Cc1ccc(-c3nnc(C(F)F)o3)cc1F)c1ccccc1)C2 [Compound 21501, N-(4-(5-(difluoromethyl)-1,3,4-oxadiazol-2-yl)-2-fluorobenzyl)-7-(methylsulfonyl)-N-phenyl-2,7-diazaspiro[3.5]nonane-2-carboxamide] |
